Assay results from patent US8097282B2, “Methods of administering liquid droplet aerosols of nanoparticulate drugs” (Alkermes Pharma Ireland Limited, priority 1995, dated 2012).

Tests used:
[1] = tested on: rabbit's pulmonary region; assay: Computed tomography (CT) after administration of ultrasonically nebulized formulation to an intubated anesthetized rabbit; format: in vivo; settings: ultrasonic nebulizer, several minutes, 30% suspension in 6% F108
Procedure: (§1) In this example, a suspension of WIN 68209 (30%) in aqueous F108 surfactant (6%) was prepared by conventional roller milling techniques (jar mill, zirconium silicate beads, 7 days milling time). The mean particle size of the resultant distribution was 196 nm. The formulation was administered to an anesthetized rabbit as follows: Several mL of formulation was placed in an ultrasonic nebulizer (DeVilbiss AeroSonic™) which was connected in-line with a mechanical ventilator, terminating in a suitable endotracheal tube. The rabbit was then intubated and administered the nebulized formulation for several minutes.

[2] = Mean particle size of roller-milled WIN 68209 suspension; format: physicochemical; settings: 30% suspension in aqueous F108 surfactant (6%), 7 days roller milling
Procedure: as §1

[3] = format: physicochemical
Procedure: Nanoparticle Preparation and Characterization. Nanoparticles were prepared by media milling a suspension of 5% beclomethasone diproprionate in an aqueous solutions of PVA. Thus, the PVA was the surface modifier. The resulting particle size distribution was determined by dynamic light scattering. The particle size distribution was periodically monitored throughout the course of the study. […] In addition, particle size of the diluted dispersions remained constant for at least the duration of the experiment.

particle size distribution ([3]; nanoparticles in 2.5% polyvinyl alcohol) [micrometer] | SMILES | CT scans of pulmonary region after nebulized administration [1] | mean particle size [2] [nm] | chemical stability [3] | particle size stability [3]
– | CCOC(=O)C=C(COC(=O)c1c(I)c(NC(C)=O)c(I)c(NC(C)=O)c1I)OCC [WIN 68209, benzoic acid, 3,5-bis(acetylamino)-2,4,6triodo-, 4(ethyl-3-ethoxy-2-butenoate) ester] | showed the presence of radiopaque contrast agent in the region | 196 | – | –
0.26±0.13 | CCC(=O)OCC(=O)[C@@]1(OC(=O)CC)[C@@H](C)C[C@H]2[C@@H]3CCC4=CC(=O)C=C[C@]4(C)[C@@]3(Cl)[C@@H](O)C[C@@]21C.O [beclomethasone diproprionate, Beclomethasone diproprionate] | – | – | neither was there any evidence of chemical instability | remained constant throughout the course of the study
